Source: patent US4046878A, “Daunomycin analogues, their preparation and use” (Societa' Farmaceutici Italia S.p.A., priority 1974, dated 1977)
Converted amounts (≈) assume the structure as drawn. Where two headings read alike, the source gives them in different places.

What was measured:
[1] = tested on: ascites sarcoma 180 cells; experiment: Ascitic tumors: survival of mice inoculated intraperitoneally with ascites sarcoma 180 cells; type: in vivo, mice (Swiss CD 1); conditions: i.p.
Experimental: Tests were carried out on groups of 10 mice (Swiss CD 1) inoculated intraperitoneally with 1 × 10^6 ascites sarcoma 180 cells/animal. The animals were treated intraperitoneally with different concentrations of the Test Compound and adriamycin once a day following tumor implantation.
(§1) *% T/C = (mean survival time of treated mice/mean survival time of contro
**The figures in parentheses indicate the number of longterm survivors,
animals, one animal remained alive at the end of 60 days. (*) % T/C =

[2] = tested on: HeLa cells; experiment: Viability (colony formation) of HeLa cells in vitro; type: cell-based; conditions: for IC50: Homo sapiens, HeLa, colony numbers 6 days later
Experimental: In vitro studies were carried out on HeLa cells, maintained in Eagle medium supplemented with 10% calf serum. The cells were treated with daunomycin, adriamycin* and the Test Compound for different periods of times. The cell viability was assessed by […] of 200-300 cells/plate. Colony numbers were evaluated 6 days later.

[3] = tested on: solid tumors; experiment: Solid tumors: tumor weight in mice grafted subcutaneously with fragments of neoplastic tissue; conditions: for Toxicity / % T/C (mean tumor weight) / Tumor Weight: five days; for Tumor Weight: control 3.036, in g (unit assumed); for therapeutic index (T.I.): Maximum Tolerated dose (LD 10)/Minimum effective dose (T/C 0.10)
Experimental: In vivo tests on the activity of the Test Compound as compared with adriamycin on solid tumors were carried out on groups of ten Swiss CD 1 mice subcutaneously grafted with fragments of neoplastic tissue and treated intravenously with the respective antibiotics for five days starting form the day following the tumor implantation.
On the tenth day, all the test animals were sacrificed and their tumors removed and weighed.
*The therapeutic index (T.I) is expressed as the ratio between the maximu
tolerated dose (LD10) and the minimum effective dose, according to
Skipper and Schmidt, Cancer Chemother, Rep. 17 : 1-128, 1962. The minimum
effective dose indicates the dose which reduces by 90% the weight of
tumors compared to controls : such 90% reduction correponds to a T/C valu
**% T/C = (mean tumor weight of treated mice/mean tumor weight of control

[4] = tested on: L 1210 leukemia cells; experiment: Leukemia: survival of mice inoculated intraperitoneally with L 1210 leukemia cells; type: in vivo, BDF 1 mice; conditions: for Toxicity / % T/C (mean survival time) / Average Survival Time: once; for % T/C (mean survival time) / Average Survival Time: day after implantation; for Average Survival Time: control 8
Experimental: The activity of the Test Compound was tested on BDF 1 mice inoculated intraperitoneally with 1×10^5 L 1210 leukemia cells/animal.
The animals were treated once, the day after tumor implantation.
as §1

[5] = tested on: mouse embryo fibroblast cultures; experiment: Cell proliferation in uninfected mouse embryo fibroblast cultures (cytotoxic activity); conditions: 3 days
[6] = tested on: Moloney Sarcoma Virus (MSV); experiment: Formation of foci by Moloney Sarcoma Virus in infected mouse embryo fibroblast cultures (antiviral activity); type: cell-based
Text: In vitro test on the formation of foci by Moloney Sarcoma Virus (MSV).

[7] = read-out: ID 50, 2 hrs. treatment
[8] = read-out: ID 50, 8 hrs. treatment
[9] = Fibroblast, 72 h, read-out: % Foci (control = 100)

With CC(=O)C1(O)Cc2c(O)c3c(c(O)c2C(O[C@H]2C[C@H](N)[C@H](O)[C@H](C)O2)C1)C(=O)c1ccccc1C3=O (mixture of isomers) [Test Compound, mixture of the α-anomers of (-)daunosaminyl(-)4-demethoxydaunomycinone and (-(daunosaminyl(+)4-demethoxydaunomycinone] the “% T/C, average survival time” value ([1]; Experiment 1, 1 mg/kg day) was 185%, the “number of longterm survivors, i.e., after 60 days” value (“number of longterm survivors” below) ([1]; Experiment 1, 1 mg/kg day) was 0/10 and the “% T/C, average survival time” value ([1]; Experiment 1, 2 mg/kg day) was 61%. For the same compound, the “number of longterm survivors” value ([1]; Experiment 1, 2 mg/kg day) was 1/10, the “% T/C, average survival time” value ([1]; Experiment 1, 5 mg/kg day) was 38% and the “number of longterm survivors” value ([1]; Experiment 1, 5 mg/kg day) was 0/10. The “% T/C, average survival time” value ([1]; Experiment 2, 0.2 mg/kg day) was 146%, the “number of longterm survivors” value ([1]; Experiment 2, 0.2 mg/kg day) was 0/10 and the “% T/C, average survival time” value ([1]; Experiment 2, 1 mg/kg day) was 107%. For the same compound, the “number of longterm survivors” value ([1]; Experiment 2, 1 mg/kg day) was 0/10, the “% T/C, average survival time” value ([1]; Experiment 2, 1.5 mg/kg day) was 79% and the “number of longterm survivors” value ([1]; Experiment 2, 1.5 mg/kg day) was 0/10. The “% T/C, average survival time” value ([1]; Experiment 3, 0.12 mg/kg day) was 115%, the “number of longterm survivors” value ([1]; Experiment 3, 0.12 mg/kg day) was 0/10 and the “% T/C, average survival time” value ([1]; Experiment 3, 0.25 mg/kg day) was 188%. For the same compound, the “number of longterm survivors” value ([1]; Experiment 3, 0.25 mg/kg day) was 1/10, the “% T/C, average survival time” value ([1]; Experiment 3, 0.5 mg/kg day) was 181% and the “number of longterm survivors” value ([1]; Experiment 3, 0.5 mg/kg day) was 0/10. For the same compound, the “% T/C, average survival time” value ([1]; Experiment 3, 1 mg/kg day) was 223%, the “number of longterm survivors” value ([1]; Experiment 3, 1 mg/kg day) was 1/10 and the “active dose relative to adriamycin, in words” value ([1]; once a day) was “active at lower doses than adriamycin”. For the same compound, the “effect on ascitic tumor growth, in words” value ([1]; once a day) was “remarkable effect on ascitic tumor growth”, the “activity on HeLa cell viability, in words” value ([2]; 2 hours of treatment) was “as active as adriamycin” and the “inhibition of cell viability, in words” value ([2]; 8 hours of treatment) was “higher than the inhibition by either adriamycin or daunomycin”. The IC50 ([2]; 2 hrs. treatment, read-out: ID 50 (the source's name)) was 0.2 µg/mL, the IC50 ([2]; 8 hrs. treatment, read-out: ID 50 (the source's name)) was 0.002 µg/mL and the Toxicity ([3]; 0.5 mg/kg i.v.) was 0/10. The “% T/C (mean tumor weight)” value ([3]; 0.5 mg/kg i.v., tenth day) was 76%, the “Tumor Weight” value ([3]; 0.5 mg/kg i.v., tenth day) was 2.295 and the Toxicity ([3]; 1 mg/kg i.v.) was 0/10. For the same compound, the “% T/C (mean tumor weight)” value ([3]; 1 mg/kg i.v., tenth day) was 51%, the “Tumor Weight” value ([3]; 1 mg/kg i.v., tenth day) was 1.550 and the “inhibition of the tumor growth” value ([3]; 1 mg/kg i.v., higher non toxic dose tested, tenth day) was 50%. For the same compound, the Toxicity ([3]; 2 mg/kg i.v.) was 3/10, the “% T/C (mean tumor weight)” value ([3]; 2 mg/kg i.v., tenth day) was 16% and the “Tumor Weight” value ([3]; 2 mg/kg i.v., tenth day) was 0.485. The “therapeutic index (T.I.)” value [3] was 3.7, the Toxicity ([4]; 0.75 mg/kg) was 0/10 and the “% T/C (mean survival time)” value ([4]; 0.75 mg/kg) was 156%. For the same compound, the “Average Survival Time” value ([4]; 0.75 mg/kg) was 12.5, the Toxicity ([4]; 1.5 mg/kg) was 1/10 and the “% T/C (mean survival time)” value ([4]; 1.5 mg/kg) was 162%. The “Average Survival Time” value ([4]; 1.5 mg/kg) was 13, the Toxicity ([4]; 3 mg/kg) was 7/10 and the “% T/C (mean survival time)” value ([4]; 3 mg/kg) was 87%. For the same compound, the “Average Survival Time” value ([4]; 3 mg/kg) was 7, the “average survival time of treated animals, in words” value ([4]; non toxic doses tested) was “increased considerably” and the “active dose relative to adriamycin, in words” value ([4]; single treatment) was “active at lower doses than adriamycin”. The “cytotoxic activity, in words” value [5] was “the same cytotoxic activity as adriamycin”, the “antiviral activity (MSV foci formation), in words” value ([6]; 3 days) was “lesser antiviral activity than adriamycin” and the activity at 0.006 µg/mL ([6]; Fibroblast, 72 h, 0.006 γ/ml, 3 days, read-out: % Foci (control = 100)) was 54%. The activity at 0.025 µg/mL ([6]; Fibroblast, 72 h, 0.0250 γ/ml, 3 days, read-out: % Foci (control = 100)) was 12%, the activity at 0.1 µg/mL ([6]; Fibroblast, 72 h, 0.1 γ/ml, 3 days, read-out: % Foci (control = 100)) was 0% and the activity at 0.6 µg/mL ([6]; Fibroblast, 72 h, 0.6 γ/ml, 3 days, read-out: % Foci (control = 100)) was 0%.
With COc1cccc2c1C(=O)c1c(O)c3c(c(O)c1C2=O)C[C@@](O)(C(=O)CO)C[C@@H]3O[C@H]1C[C@H](N)[C@H](O)[C@H](C)O1 [Adriamycin, reference compound] the “% T/C, average survival time” value ([1]; Experiment 1, 1 mg/kg day) was 146%, the “number of longterm survivors” value ([1]; Experiment 1, 1 mg/kg day) was 1/9 and the “% T/C, average survival time” value ([1]; Experiment 1, 2 mg/kg day) was 400%. For the same compound, the “number of longterm survivors” value ([1]; Experiment 1, 2 mg/kg day) was 5/10, the “% T/C, average survival time” value ([1]; Experiment 1, 5 mg/kg day) was 311% and the “number of longterm survivors” value ([1]; Experiment 1, 5 mg/kg day) was 4/10. For the same compound, the “% T/C, average survival time” value ([1]; Experiment 2, 0.2 mg/kg day) was 107%, the “number of longterm survivors” value ([1]; Experiment 2, 0.2 mg/kg day) was 0/10 and the “% T/C, average survival time” value ([1]; Experiment 2, 1 mg/kg day) was 143%. For the same compound, the “number of longterm survivors” value ([1]; Experiment 2, 1 mg/kg day) was 1/10, the “% T/C, average survival time” value ([1]; Experiment 2, 5 mg/kg day) was 225% and the “number of longterm survivors” value ([1]; Experiment 2, 5 mg/kg day) was 1/10. The “% T/C, average survival time” value ([1]; Experiment 2, 10 mg/kg day) was 193%, the “number of longterm survivors” value ([1]; Experiment 2, 10 mg/kg day) was 0/10 and the “% T/C, average survival time” value ([1]; Experiment 3, 0.1 mg/kg day) was 100%. The “number of longterm survivors” value ([1]; Experiment 3, 0.1 mg/kg day) was 0/10, the “% T/C, average survival time” value ([1]; Experiment 3, 1 mg/kg day) was 169% and the “number of longterm survivors” value ([1]; Experiment 3, 1 mg/kg day) was 1/9. The IC50 [2, 7] was 0.2 µg/mL (≈ 0.368 µM), the IC50 [2, 8] was 0.039 µg/mL (≈ 0.0718 µM) and the Toxicity ([3]; 2.5 mg/kg i.v.) was 0/10. For the same compound, the “% T/C (mean tumor weight)” value ([3]; 2.5 mg/kg i.v., tenth day) was 48%, the “Tumor Weight” value ([3]; 2.5 mg/kg i.v., tenth day) was 1.465 and the Toxicity ([3]; 3.5 mg/kg i.v.) was 7/10. The “% T/C (mean tumor weight)” value ([3]; 3.5 mg/kg i.v., tenth day) was 12%, the “Tumor Weight” value ([3]; 3.5 mg/kg i.v., tenth day) was 0.364 and the “therapeutic index (T.I.)” value [3] was 1.8. For the same compound, the Toxicity ([4]; 2.5 mg/kg) was 0/10, the “% T/C (mean survival time)” value ([4]; 2.5 mg/kg) was 156% and the “Average Survival Time” value ([4]; 2.5 mg/kg) was 12.5. The Toxicity ([4]; 5 mg/kg) was 0/10, the “% T/C (mean survival time)” value ([4]; 5 mg/kg) was 175% and the “Average Survival Time” value ([4]; 5 mg/kg) was 14. The Toxicity ([4]; 10 mg/kg) was 4/10, the “% T/C (mean survival time)” value ([4]; 10 mg/kg) was 200% and the “Average Survival Time” value ([4]; 10 mg/kg) was 16. The activity at 0.006 µg/mL [6, 9] was 26%, the activity at 0.0125 µg/mL [6, 9] was 0% and the activity at 0.025 µg/mL [6, 9] was 0%.
COc1cccc2c1C(=O)c1c(O)c3c(c(O)c1C2=O)C[C@@](O)(C(C)=O)C[C@@H]3O[C@H]1C[C@H](N)[C@H](O)[C@H](C)O1 [Daunomycin] gave an IC50 [2, 7] of 0.095 µg/mL (≈ 0.18 µM) and an IC50 [2, 8] of 0.023 µg/mL (≈ 0.0436 µM).
